Measured values from US10124019B2, “Compositions and their use for removing cholesterol” (Cornell University, priority 2009, dated 2018).
pEC50: −log10 of the molar value. Like-named read-outs stand apart in the source and are kept apart here.

Columns and labels:
[1] = system: NPC1 human fibroblast GM18453; NPC2 human fibroblast GM18445; assay: HDAC inhibitor effect on LSO cholesterol, 48-hour treatment; type: cell-based; conditions: 37 nM
Procedure: Cells were treated in complete medium for two days (48 hours). The dashed horizontal line is 3SD below the mean for untreated cells. (A) results for NPC1 human fibroblast GM18453, (B) results for NPC2 human fibroblast GM18445.
Each data point in the plot is representative of a total of 32 images from two independent experiments. The standard deviation (SD) for DMSO is 0.07, error bar=SE. The dotted line represents the DMSO control.

GM03123 (NPC1) cells = assay: LSO filipin assay of cholesterol accumulation, NPC1 mutant fibroblasts; type: cell-based, human
Procedure: (§1) FIGS. 5 A-D. Charts showing quantification of CD effects on cholesterol accumulation in NPC1 and NPC2 mutant cells. The filipin fluorescence in LSOs was measured in NPC1 (A and B) and NPC2 (C and D) mutant cells treated with either MβCD (A and C) or HPβCD (B and D) for 1-4 days.
(§2) FIG. 6. Chart comparing cholesterol accumulation as measured by the LSO assay in NPC1-defective, NPC2-defective, and apparently normal human fibroblasts. […] At the end of the experiment, cells were fixed with 1% PFA and stained with 50 μg/mL filipin. Images were acquired using an ImageXpress MICRO imaging system with a 10× objective. Quantification of filipin labeling of the LSOs was performed as described previously (Pipalia N H, Huang A, Ralph H, Rujoi M, Maxfield FR (2006) Automated microscopy screening for compounds that partially revert cholesterol accumulation in Niemann-Pick C cells. J. Lipid Res. 47:284-301).

GM18455 (NPC2) cells = assay: LSO filipin assay of cholesterol accumulation, NPC2 mutant fibroblasts; type: cell-based, human
Procedure: as §1, §2

NPC mutant cells = assay: BMP accumulation by anti-BMP immunofluorescence; type: cell-based, human; conditions: 0.9 mM CD for ≈1 day (FIG. 15)
Procedure: FIGS. 15 A-C. CD effects on BMP accumulation in NPC mutant cells. BMP levels were quantified using fluorescence microscopy from images obtained with a 20× objective of cells stained with anti-BMP antibody and AlexaFluor488-conjugated secondary antibody in NPC1 (A), NPC2 (B) mutant, and 1 μM U18666A-treated normal (C) cells. Cells were incubated with 0.9 mM CD for ≈1 day.

[2] = system: NPC1 and NPC2 mutant cells; assay: LSO filipin staining after cyclodextrin treatment, withdrawal and acute treatment; type: cell-based, human; conditions: for cholesterol accumulation detected by filipin labeling: 300 μM CD for 1 day (FIG. 4); for LSO values one more day after CD removal versus fixed immediately / LSO cholesterol accumulation after three days without extracellular CD: 1 day treatment; for LSO values one more day after CD removal versus fixed immediately: then 1 day in growth medium without CD; for LSO cholesterol accumulation after three days without extracellular CD: then three days in serum containing medium; for level to which LSO cholesterol accumulation is reduced: low micromolar concentrations, 1-4 days (FIG. 5)
Procedure: FIG. 4. Micrographs showing the effect of CDs on cholesterol accumulation in NPC1- and NPC2-deficient cells. (A) Background and shading corrected images of untreated (a and b), MβCD-treated (c and d), or HPβCD-treated (e and f) GM03123 NPC1 cells (a, c, and e) or GM18455 NPC2 (b, d, and f) mutant cells. NPC mutant cells were treated with 300 μMCD for 1 day. (B) Untreated, apparently normal GM05659 cells, shown for comparison. (Scale bars, 100 μm.)
FIGS. 8 A-D. Charts showing persistence of CD effects after treatment. NPC1 (A and B) and NPC2 (C and D) treated with various concentrations of MβCD (A and C) and HPβCD (B and D) for 1 day and then fixed (0 days after 24 h treatment), or rinsed extensively, and allowed to grow in normal growth medium for up to three additional days after CD removal. Quantification of LSO filipin fluorescence power is shown.
FIG. 9 A, B. Filipin micrographs showing acute cyclodextrin effects on cholesterol accumulation in NPC1- and NPC2-deficient cells. Background and shading corrected images of untreated control (panels a-c), 0 h after treatment (panels d-f), or 24 h after treatment (panels g-i) for NPC1 (A) or NPC2 (B) mutant cells were obtained as in FIG. 6. […] (Scale bars, 100 μm.)
FIGS. 10 A-D. Short-term MβCD treatment. […] Cells were either fixed immediately or rinsed extensively and returned to growth medium for 24 hours. Quantification of LSO filipin fluorescence power is shown (A and C). Numeric data represent averages±SEM of three independent experiments normalized to control (untreated) average value for each experiment. *P<0.0001 vs. control (n=12, where n is total number of wells used for quantification). Filipin images of NPC1 (B) or NPC2 (D) mutant cells treated with MβCD/cholesterol are shown. (Scale bars, 100 μm.)
To determine whether the CD-mediated decrease in cholesterol accumulation would be sustained after the compound has been removed from the culture medium, NPC1 and NPC2 mutant cells were treated for 1 day with varying concentrations of MβCD or HPβCD (FIG. 8). The cells were then washed extensively to remove the compounds and returned to growth medium for up to three days.
To determine whether the reduction of free cholesterol in LSOs of NPC-defective cells resulted from extraction of cholesterol by CD from the PM or from inside the LSOs, this experiment acutely treated cells for one hour with MβCD in medium without serum (to extract cholesterol from the PM), MβCD in medium plus 10% FBS (to exchange cholesterol between serum lipoproteins and the PM (V. M. Atger, et al. (1997), J. Clin. Invest., 99:773-780)), or MβCD loaded with cholesterol (≈5:1 (MβCD/cholesterol) ratio) to overload cells with cholesterol.

[3] = system: U18666A-treated GM05659 cells
Procedure: (§3) Cells were plated in 384-well assay plates at a density to produce ≈80-90% confluency by experiment completion and treated with U18666A at indicated concentrations for 24 hour before addition of various concentrations of either MβCD or HPβCD for another 24 hours, during which indicated U18666A levels were maintained. At the end of the experiment, cells were fixed with 1% PFA and stained with 50 μg/mL filipin. Images were acquired using an ImageXpressMICRO imaging system with a 10× objective. […] (A) Cholesterol accumulation, as measured by the LSO filipin assay, at different concentrations of U18666A. MβCD (B) and HPβCD (C) LSO filipin dose-response curves at three different U18666A concentrations. […] Data represent averages±SEM of two independent experiments (n=12 for control and n=6 for treated, where n is total number of wells per condition used for quantification).

[4] = system: NPC1- or NPC2-deficient cell lines; conditions: literature study, cultured NPC1- and NPC2-deficient cells; cited from earlier work
npc1−/− mice = conditions: cited from earlier work
[5] = system: U18666A-treated GM05659 cells; assay: LSO filipin assay in U18666A-treated apparently normal fibroblasts; conditions: read-out: EC50 (μM), 50% reduction in LSO filipin, cyclodextrin 1 day
Procedure: as §3

human NPC1 cells = assay: Removal of cholesterol from LSOs by filipin staining and digital image analysis
Procedure: Graph showing the concentration and time dependence of the removal of cholesterol from LSOs of human NPC1 cells incubated with the indicated concentrations of MβCD in complete medium for 1-4 days.
Graph showing concentration of cholesterol from LSOs of NPC1 cells incubated with 0.33 mM MβCD for one hour under various conditions (i.e., no FBS, 10% FBS, and cholesterol-loaded MβCD (i.e., “MbCD/cholest.”), and these with either no chase or a 24 hour chase). At the end of the incubation, cells were rinsed thoroughly, and returned to complete medium for 24 hours.
Graph comparing the cholesterol-lowering ability of MβCD and a MβCD-dextran composition of the instant invention. Human NPC1 cells were incubated with MβCD (●) or Dextran-PEG-MbCD (O) for 39 hours. The polymers had about two MβCDs per polymer, and the concentration is the MβCD concentration.
(A) Cells were treated for 2 days with 50 μM MβCD or 50 μM MβCD conjugated to dextran fixed with paraformaldehyde, stained, and imaged. Cholesterol accumulation in LSOs was measured by quantifying filipin fluorescence. Data represent averages±SEM of one representative experiment (n=8, where n is total number of wells per condition used for quantification).
In this experiment, studies were conducted to determine the effects of MβCD on NPC1 and NPC2 cells. […] The cells were then rinsed and incubated in complete medium for 24 hours. […] To further emphasize this, the one-hour loading pulse was conducted with cholesterol-loaded MβCD, which would actually increase the cellular cholesterol during the loading period.

NPC1 fibroblast GM03123 = assay: HDAC inhibitor dose and time dependence on LSO cholesterol; type: cell-based, human
From the text: FIG. 19. Plots showing the dose and time dependence for each of the studied HDACi compounds as a function of time on NPC1 fibroblast GM03123.
Dose and time dependence for each of the studied HDACi compounds as a function of time on NPC1 fibroblast GM03123 are shown in the plots of FIG. 19. Each data point in the plot is representative of a total of 32 images from two independent experiments. The SD for DMSO is 0.07, error bar=SE. The dotted line represents the DMSO control.

[6] = system: NPC1- or NPC2-deficient cell lines; assay: Cholesterol esterification by ACAT (BODIPY-C12); type: cell-based, human; conditions: S58-035 at 10 μg/mL
Procedure: FIG. 12 A, B. Charts showing cholesterol esterification by ACAT. Cyclodextrin effects on cholesterol esterification in NPC1 (A) and NPC2 (B) mutant cells. Cells were treated for 1 hour with 3 mM MβCD or HPβCD and then allowed to recover in growth medium for 16 hours. Cells were then incubated with 3 μM 4,4-difluoro-4-bora-3a,4a-diaza-s-indacene-dodecanoic acid (BODIPY-C12) for 6 hours. The ratio of cholesteryl-BODIPY-C12 ester (CE)/BODIPY-C12 acid (FA) after TLC separation was measured and normalized to the average control value. ACAT inhibitor S58-035 was added, where indicated, at 10 μg/mL. For NPC1-defective cells, the average ratio was 0.110±0.007, which corresponded to 3.73±0.22 fmol CE formed per μg cell protein during 6 hours. Corresponding values for NPC2-defective cells were 0.089±0.003 and 2.50±0.24 fmol/μg.
To measure cholesterol levels within the endoplasmic reticulum in response to brief CD treatments, cholesterol esterification was measured by ACAT (FIG. 12). Increased esterification of cholesterol was observed several hours after a short (1-hour) CD treatment of NPC1- or NPC2-deficient cell lines. […] Corresponding reductions in cholesterol accumulation upon MβCD treatment, as measured by the LSO filipin assay, are shown in FIG. 13.

[7] = read-out: EC50 (μM), 50% reduction in LSO filipin, 1 day of treatment
[8] = read-out: EC50 (μM), 50% reduction in LSO filipin, 2 days of treatment
[9] = read-out: EC50 (μM), 50% reduction in LSO filipin, 3 days of treatment
[10] = read-out: EC50 (μM), 50% reduction in LSO filipin, 4 days of treatment

In the case of `CC(/C=C/C(=O)NO)=C\[C@@H](C)C(=O)c1ccc(N(C)C)cc1` [trichostatin A], the “reduction of cholesterol in the LSOs” value [1] was “significantly effective”.
Work on hydroxypropyl-βCD [HPβCD] yielded an EC50 (GM03123 (NPC1) cells; [7]) of 3.16 µM, an EC50 (GM03123 (NPC1) cells; [8]) of 3.77 µM and an EC50 (GM03123 (NPC1) cells; [9]) of 4.18 µM. For the same compound, the EC50 (GM03123 (NPC1) cells; [10]) was 5.44 µM, the EC50 (GM18455 (NPC2) cells; [7]) was 272 µM and the EC50 (GM18455 (NPC2) cells; [8]) was 20.8 µM. The EC50 (GM18455 (NPC2) cells; [9]) was 16.9 µM, the EC50 (GM18455 (NPC2) cells; [10]) was 11.5 µM and the BMP accumulation (NPC mutant cells) was “significantly reduced BMP accumulation”. For the same compound, the “cholesterol accumulation detected by filipin labeling” value [2] was “reduced cholesterol accumulation”, the “LSO values one more day after CD removal versus fixed immediately” value [2] was “further decrease in LSO values” and the “LSO cholesterol accumulation after three days without extracellular CD” value [2] was “significant reduction”. The “level to which LSO cholesterol accumulation is reduced” value [2] was “near-normal levels”, the pEC50 [3] was 4.76 and the “ACAT-mediated esterification of cholesterol” value [4] was “increased ACAT-mediated esterification of cholesterol”. For the same compound, the glycosphingolipid storage (npc1−/− mice; repeated injections) was “clearance of various glycosphingolipids”, the lifespan (npc1−/− mice; repeated injections) was “further prolongation of lifespan” and the lifespan (npc1−/− mice; single injections) was “can extend their lifespan”. The EC50 ([5]; U18666A 1,000 nM) was 185 µM, the EC50 ([5]; U18666A […]) was 69.9 µM and the “times higher concentrations required to achieve the same effect as MβCD” value (human NPC1 cells; relative to MβCD) was 3-5 times.
For “MβCD-NH-(PEG)3-CONH-aminodextran [MβCD-dextran]”, the “reversal of cholesterol accumulation in LSOs (filipin)” value (human NPC1 cells; 50 μM MβCD conjugated to dextran, 2 days (FIG. 11A)) was “can also reverse cholesterol accumulation” and the “cholesterol-lowering in LSOs” value (human NPC1 cells; 39 hours, about two MβCDs per polymer (FIG. 3)) was “significant effect”.
Work on methyl β-cyclodextrin [MβCD] yielded an EC50 (GM03123 (NPC1) cells; [7]) of 2.22 µM, an EC50 (GM03123 (NPC1) cells; [8]) of 1.1 µM and an EC50 (GM03123 (NPC1) cells; [9]) of 0.98 µM. The EC50 (GM03123 (NPC1) cells; [10]) was 1.08 µM, the EC50 (GM18455 (NPC2) cells; [7]) was 40.4 µM and the EC50 (GM18455 (NPC2) cells; [8]) was 3.19 µM. For the same compound, the EC50 (GM18455 (NPC2) cells; [9]) was 2.8 µM, the EC50 (GM18455 (NPC2) cells; [10]) was 1.69 µM and the BMP accumulation (NPC mutant cells) was “significantly reduced BMP accumulation”. The “cholesterol accumulation detected by filipin labeling” value [2] was “reduced cholesterol accumulation”, the “LSO values one more day after CD removal versus fixed immediately” value [2] was “further decrease in LSO values” and the “LSO cholesterol accumulation after three days without extracellular CD” value [2] was “significant reduction”. The “level to which LSO cholesterol accumulation is reduced” value [2] was “near-normal levels”, the “concentration giving effects equivalent to those of HPβCD” value ([2]; relative to HPβCD) was “approximately three-fold lower concentrations” and the pEC50 [3] was 5.21. The EC50 ([5]; U18666A 1,000 nM) was 48.1 µM, the EC50 ([5]; U18666A […]) was 18.9 µM and the “cholesterol in LSOs after 24 hr chase” value (human NPC1 cells; 1 hour pulse, 0.33 mM, then 24 hours in complete medium) was “significant reduction”. The “time for the effect to reach steady state” value (human NPC1 cells; FIG. 1) was “about 2 days” and the pEC50 (human NPC1 cells; read-out: concentration giving half-maximal effect on removal of cholesterol from LSOs, complete medium, 1-4 days (FIG. 1)) was 5.52 to 5.70.
With `O=C(CCCCCCC(=O)Nc1ccccc1)NO` [SAHA, suberoylanilide hydroxamic acid] the “reduction of cholesterol in the LSOs” value (NPC1 fibroblast GM03123) was “somewhat effective” and the “reduction of cholesterol in the LSOs” value (NPC1 fibroblast GM03123; 10 μM, other experiments (not shown)) was “much more effective”.
With `CCCCCCCCCC[Si](C)(C)CCC(=O)NC(Cc1ccc(C)cc1)c1ccccc1` (centres unmarked) [S58-035] the “effect on CD-induced increase in cholesterol esterification” value [6] was “inhibited”.
